# In patent publication US8377913B2, “Vitamin D receptor activators and methods of making” (AbbVie Inc., priority 2007, dated 2013):
# pIC50: −log10 of the molar value.
# Legend:
# [1] = tested on: Renin mRNA in As4.1 cells; experiment: Renin mRNA in As4.1 cells transfected with pcDNA-hVDR (real-time RT-PCR); assay type: cell-based
# Protocol: As4.1 cells (ATCC, Manassas, Va.) were cultured in Dulbecco's Modified Eagle Medium DMEM (commercially available from Invitrogen, Carlsbad, Calif.) with 10% fetal bovine serum at 37° C. in a humidified 5% CO2-95% air atmosphere. C3;ells were transfected with the pcDNA-hVDR plasmid (provided by Yan Chun Li, University of Chicago) by LIPOFECTAMINE™ 2000 (Invitrogen, Carlsbad, Calif.). siRNA was transfected with the pcDNA-hVDR plasmid by LIPOFECTAMINE™ 2000 according to the manufacturer's protocol. Twenty-four hours after transfection, cells were treated with test agents.
# Real-time reverse transcription-PCR was performed with a MyiQ Real-time PCR Detection System (commercially available from BioRad, Hercules, Calif.). […] TaqMan™ probes that were 5′ labeled with the reporter 6-carboxyfluorescein (FAM) and 3′ labeled with the quencher tetramethylrhodamine (TAMRA) were used and the primer and probe sets were obtained from Applied Biosystems (Foster City, Calif.). Temperature conditions consisted of a step of 5 minutes at 95° C., followed by 45 cycles of 60° C. for 1 minute and 95° C. for 15 seconds. Data was collected during each extension phase of the PCR reaction and analyzed with the accompanying software package (BioRad, Hercules, Calif.). Threshold cycles were determined for each gene.
# [2] = tested on: 5/6 NX rats; experiment: Study 1: serum PTH, ionized Ca++, total Ca++ and phosphorus in the 5/6 NX rat model; assay type: in vivo; conditions: for decrease in PTH: Day 0 vs. Day 13
# Protocol: Study 1: The purpose of the study was to compare the effects of Example 1 on serum PTH, ionized Ca++, total Ca++ and phosphorus in the 5/6 NX rat model.
# Methods: 5/6 NX rats were fed a normal diet (Teklad 8640; 0.9% Phos. and 1.1% Ca++) for 4 weeks prior to study at 6 weeks uremia, and were maintained on this diet for the duration of the study. 5/6 NX rats were treated with vehicle and 10, 30 or 100 μg/kg of A-Example 1. Rats were dosed i.p. 3×/week for 2 weeks. Blood was collected on Days 0 and 13 for determination of concentrations of PTH, ionized Ca++, total Ca++ and phosphorus.
# [3] = tested on: Thrombospondin mRNA in human coronary artery smooth muscle cells (CASMC); experiment: Thrombospondin mRNA in CASMC; assay type: cell-based; conditions: Homo sapiens
# Protocol: Primary culture of human coronary artery smooth muscle cells (CASMC) (commercially available from Cambrex, Walkersville, Md.) were grown in smooth muscle growth medium SmGM-2 (commercially available from Lonza Bioscience) containing 5.5 mM glucose, 5% FBS, 50 μg/ml gentamicin, 50 ng/ml amphotericin-B, 5 μg/ml insulin, 2 ng/ml human recombinant fibroblast growth factor (hFGF), and 0.5 ng/ml human recombinant epidermal growth factor (hEGF) at 37° C. in a humidified 5% CO2-95% air atmosphere. Cells were grown to >80% confluence and used within five passages.
# Real-time reverse transcription-PCR was performed with a MyiQ Real-Time PCR Detection System (BioRad, Hercules, Calif.). Each sample has a final volume of 25 μl containing 100 ng of cDNA, […] each of the forward and reverse PCR primers and […] of the TaqMan™ probe for the gene of interest (Applied Biosystems, Foster City, Calif.). Temperature conditions consisted of a step of 5 minutes at 95° C., followed by 40 cycles of 60° C. for 1 minute and 95° C. for 15 seconds. Data was collected during each extension phase of the PCR reaction and analyzed with the software package (BioRad, Hercules, Calif.). Threshold cycles were determined for each gene. […]
# [4] = tested on: Male, C57BL6, mice; experiment: Normal Mouse Calcemia Model; assay type: in vivo
# Protocol: Male, C57BL6, mice were obtained from Jackson Laboratories. The mice were habituated for four days while maintained on a normal diet (D10001, Research Diets Inc.). Treatment was initiated with vehicle (20% ethanol/30% propylene glycol/50% water, 0.05 mL, s.c.) or test agent administered over a three log dose range. The animals were dosed once daily for 3 days. Twenty-four hours after the last dose, animals were anesthetized with ketamine/xylazine (100/18 mg/kg) and bled by cardiac puncture for measurement of PTH and other end points.
# Measurement of PTH and minerals: Calcium (Ca), serum phosphorus (Pi), creatinine and BUN were measured from serum using an Abbott Aeroset® (Abbott Laboratories, Abbott Park, Ill.). Blood ionized calcium (iCa) was determined using the i-STAT® system (Abbott Laboratories, East Windsor, N.J.). Serum PTH was measured using a mouse parathyroid hormone (PTH) EIA kit obtained from ALPCO/Immutopics, Inc. (Windham, N.H.). Selected data is shown is Table 6. The graphs in FIG. 4 give an indication of dose response. Notable is that Example 1 produced an approximately 30% reduction in PTH over at least a three log dose range without a concomitant elevation of serum calcium of greater than 1 mg/dL.
# Data analysis: Mean±standard error of the mean was calculated for each group. One way ANOVA followed by a Dunnett's test was used to assess differences between vehicle and drug-treated groups. *p<0.05=significance.
# [5] = tested on: 5/6 NX uremic rats; experiment: Study 2: left ventricular hypertrophy (LVH) in 5/6 NX uremic rats; assay type: in vivo, rat; conditions: 1, 10 and 100 μg/kg, 3×/wk for 6 wks
# Protocol: Study 2: To determine if treatment with Example 1 (1, 10 & 100 μg/kg) reduces left ventricular hypertrophy (LVH) in 5/6 NX uremic rats.
# Methods: Previous studies have shown that the 5/6 NX rat is hypertensive and presents with left ventricular hypertrophy. Therefore, 5/6 NX rats were received from Charles River at 2 weeks uremia and fed TD04151 (0.6% Ca and 0.9 % P) 4 weeks prior to study. 5/6 NX rats were treated with Example 1 (1, 10 & 100 μg/kg) or vehicle (95% PG/5% EtOH) 3×/week for six weeks. On Days 0, 13 and 41 blood was drawn (24 hours post-dose). At the end of the six week treatment period, rats were anesthetized with isoflurane and echocardiography was performed. Left ventricular mass was determined according to the American Society of Echocardiography recommendations using the cube method. After euthanasia, direct measurements of left ventricular weight were obtained. Note: Vehicle treated SHAM and 5/6 NX rats (3×/week for six weeks) from previous studies were included in this study for comparison purposes. All values are mean±SEM. Data was analyzed using ANOVA and where noted t-test. * Indicates p<0.05 compared to SHAM.
# [6] = 5/6 NX rats, 100 μg/kg i.p. 3×/week for 2 weeks
# [7] = over at least a three log dose range
smiles,measurement,setting,value
"C=C1[C@H](O)CC(=C/C=C2\CCC[C@]3(C)[C@@H]([C@H](C)COC(=O)C(C)(C)C)CC[C@@H]23)C[C@H]1O [Example 1, (2S)-2-[(1R,3R,7E, 17β)-1,3-dihydroxy-2-methylene-9,10-secoestra-5,7-dien-17-yl]propyl pivalate]",pIC50,[1],9.52
same,decrease in PTH,"[2]; 5/6 NX rats, 30 μg/kg i.p. 3×/week for 2 weeks",26%
same,ionized Ca++,[2]; [6],elevated
same,total Ca++,[2]; [6],elevated
same,decrease in PTH,[2]; [6],78%
same,serum phosphorus levels,"[2]; 5/6 NX rats, 10, 30 or 100 μg/kg i.p. 3×/week for 2 weeks",did not affect
same,pIC50,[3],11.40
same,concomitant elevation of serum calcium,[4]; [7],≤ 1 mg/dL
same,reduction in PTH,[4]; [7],approximately 30%
same,1 mg/dL Δ total Ca,"[4]; s.c. once daily for 3 days, dose giving 1 mg/dL change in total Ca",>100 µg/kg
same,ED50,"[4]; sc, 72 h, s.c. once daily for 3 days, read-out: PTH ED50",0.0105 mg/kg
same,exacerbation of LVH compared to controls,[5],no exacerbation
